Where only a bound is given, the exact number is not on record here.

For orientation: EC50 means the concentration that produces a half-maximal response. The low end stands for greater potency, the high end for weaker potency.

Assay [1] deals with T1, Adrenergic receptor alpha-2 (Homo sapiens, UniProt P08913+P18825+P18089).
T1 sequence (P08913 whole entry): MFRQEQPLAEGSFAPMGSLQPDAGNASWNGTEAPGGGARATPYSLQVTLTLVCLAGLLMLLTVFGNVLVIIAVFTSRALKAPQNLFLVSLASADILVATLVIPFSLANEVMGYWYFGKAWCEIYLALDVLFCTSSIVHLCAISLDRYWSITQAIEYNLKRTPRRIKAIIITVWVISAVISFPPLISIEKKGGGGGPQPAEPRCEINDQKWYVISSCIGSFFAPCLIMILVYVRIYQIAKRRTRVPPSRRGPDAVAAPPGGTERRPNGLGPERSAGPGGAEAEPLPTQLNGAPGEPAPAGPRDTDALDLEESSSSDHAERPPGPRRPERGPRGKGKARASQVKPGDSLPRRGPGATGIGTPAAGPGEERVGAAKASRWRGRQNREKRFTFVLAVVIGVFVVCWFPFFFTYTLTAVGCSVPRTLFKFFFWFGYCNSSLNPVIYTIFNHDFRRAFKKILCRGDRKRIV
T1 sequence (P18825 whole entry): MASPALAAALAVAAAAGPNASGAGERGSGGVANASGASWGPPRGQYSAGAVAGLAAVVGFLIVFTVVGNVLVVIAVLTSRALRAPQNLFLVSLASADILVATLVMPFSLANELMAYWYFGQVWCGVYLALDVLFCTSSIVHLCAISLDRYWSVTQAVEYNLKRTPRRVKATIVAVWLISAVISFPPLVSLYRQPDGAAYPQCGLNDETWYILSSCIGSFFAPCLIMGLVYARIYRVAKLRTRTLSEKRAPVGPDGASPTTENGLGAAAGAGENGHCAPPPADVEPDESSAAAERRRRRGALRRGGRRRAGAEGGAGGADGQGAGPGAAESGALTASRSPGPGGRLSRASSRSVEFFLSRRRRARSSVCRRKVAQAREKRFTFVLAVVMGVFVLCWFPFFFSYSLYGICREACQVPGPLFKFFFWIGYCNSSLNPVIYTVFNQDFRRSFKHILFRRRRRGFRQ
T1 sequence (P18089 whole entry): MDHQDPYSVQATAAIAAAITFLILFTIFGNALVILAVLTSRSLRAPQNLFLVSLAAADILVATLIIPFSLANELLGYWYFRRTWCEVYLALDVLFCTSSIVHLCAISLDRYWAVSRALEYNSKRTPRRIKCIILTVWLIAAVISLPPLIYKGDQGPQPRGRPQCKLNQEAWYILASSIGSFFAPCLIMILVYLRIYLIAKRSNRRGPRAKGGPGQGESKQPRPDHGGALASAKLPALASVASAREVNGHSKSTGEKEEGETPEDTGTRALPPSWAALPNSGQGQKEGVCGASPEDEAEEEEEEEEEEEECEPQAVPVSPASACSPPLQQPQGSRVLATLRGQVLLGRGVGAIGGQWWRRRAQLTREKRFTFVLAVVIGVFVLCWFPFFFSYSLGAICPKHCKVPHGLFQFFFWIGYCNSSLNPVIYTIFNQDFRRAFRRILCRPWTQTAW
Description: Tested for its inhibitory activity against alpha-2 adrenoceptor in guinea pig ileum. Format: tissue-based, Cavia porcellus. Particulars: target entry is the homologue from another species.

For assay [2], the target named is T2, Adrenergic receptor alpha-1 (Homo sapiens, UniProt P35348+P25100+P35368).
T2 sequence (P35348 whole entry): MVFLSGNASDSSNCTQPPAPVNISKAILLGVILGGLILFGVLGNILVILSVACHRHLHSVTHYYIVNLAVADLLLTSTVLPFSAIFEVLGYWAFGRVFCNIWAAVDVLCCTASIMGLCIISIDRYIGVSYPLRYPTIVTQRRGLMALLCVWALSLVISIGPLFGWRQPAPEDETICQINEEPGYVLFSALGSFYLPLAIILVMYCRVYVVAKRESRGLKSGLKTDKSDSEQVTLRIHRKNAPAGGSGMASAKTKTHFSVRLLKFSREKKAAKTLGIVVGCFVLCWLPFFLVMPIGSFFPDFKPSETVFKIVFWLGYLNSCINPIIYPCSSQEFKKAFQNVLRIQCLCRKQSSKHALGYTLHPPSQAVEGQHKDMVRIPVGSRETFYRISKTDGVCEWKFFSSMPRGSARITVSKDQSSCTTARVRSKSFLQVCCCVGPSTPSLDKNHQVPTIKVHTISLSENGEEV
T2 sequence (P25100 whole entry): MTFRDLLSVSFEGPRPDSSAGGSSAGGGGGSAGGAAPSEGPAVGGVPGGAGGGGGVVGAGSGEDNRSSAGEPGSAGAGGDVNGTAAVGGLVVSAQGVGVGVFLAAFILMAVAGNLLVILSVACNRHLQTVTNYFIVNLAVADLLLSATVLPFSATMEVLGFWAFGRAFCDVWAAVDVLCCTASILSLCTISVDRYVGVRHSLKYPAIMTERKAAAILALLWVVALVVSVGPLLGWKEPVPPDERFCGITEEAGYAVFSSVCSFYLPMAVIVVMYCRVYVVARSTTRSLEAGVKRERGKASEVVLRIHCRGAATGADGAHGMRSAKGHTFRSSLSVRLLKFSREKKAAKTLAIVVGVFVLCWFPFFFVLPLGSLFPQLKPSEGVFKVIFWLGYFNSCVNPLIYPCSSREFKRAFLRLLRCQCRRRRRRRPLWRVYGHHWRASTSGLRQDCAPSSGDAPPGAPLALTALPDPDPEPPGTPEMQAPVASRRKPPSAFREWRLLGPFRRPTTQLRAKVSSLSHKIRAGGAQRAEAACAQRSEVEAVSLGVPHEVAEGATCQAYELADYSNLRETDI
T2 sequence (P35368 whole entry): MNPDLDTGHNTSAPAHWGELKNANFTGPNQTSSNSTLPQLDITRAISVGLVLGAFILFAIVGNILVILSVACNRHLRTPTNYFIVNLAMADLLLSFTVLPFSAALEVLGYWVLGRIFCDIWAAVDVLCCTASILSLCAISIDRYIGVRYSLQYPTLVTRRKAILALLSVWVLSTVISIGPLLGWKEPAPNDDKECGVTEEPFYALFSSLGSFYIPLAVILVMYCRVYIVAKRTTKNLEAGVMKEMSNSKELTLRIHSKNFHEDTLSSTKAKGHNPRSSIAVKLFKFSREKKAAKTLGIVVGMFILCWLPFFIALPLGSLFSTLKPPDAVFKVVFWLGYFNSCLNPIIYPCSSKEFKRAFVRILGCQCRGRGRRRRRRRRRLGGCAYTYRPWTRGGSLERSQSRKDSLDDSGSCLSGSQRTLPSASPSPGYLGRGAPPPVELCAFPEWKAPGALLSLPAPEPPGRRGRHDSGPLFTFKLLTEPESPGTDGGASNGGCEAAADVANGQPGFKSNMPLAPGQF
The assay can be described thus: Tested for its inhibitory activity against alpha-1 adrenoceptor in guinea pig ileum. Format: tissue-based, Cavia porcellus. Particulars: target entry is the homologue from another species.

The nature of assay [3]: Ratio between IC50 values of alpha 1 and alpha 2 receptors.
Assay [4] addresses Adrenergic receptor alpha (Rattus norvegicus) (UniProt P15823+P23944+P43140+P22086+P19328+P22909). Description: Ratio between EC50 values of alpha 1 and alpha 2 receptors. The class given is protein assay.

Turning to `CC(c1c[nH]cn1)c1cccc2ccccc12` (stereo in doubt; S-(+)-2), the concentration giving a half-maximal response (EC50) was found to be 11 nM in assay [1] and 8273 nM in assay [2].

On to `Cl.c1ccc2c(Cc3c[nH]cn3)cccc2c1`, for which the EC50 came out at 18 nM in assay [1] and 2113 nM in assay [2]. Further, the Ratio in assay [3] worked out at 2.7; in assay [4] it was 117.

For the compound `Cl.OC(c1c[nH]cn1)c1cccc2ccccc12` (stereo unspecified), the half-maximal effective concentration (EC50) is on record as 375 nM in assay [1] and 12692 nM in assay [2]. Moreover, the Ratio was 1.05 in assay [3] and 33.8 in assay [4].

In turn, `COC(c1c[nH]cn1)c1cccc2ccccc12.Cl` (stereo unspecified) had an EC50 in assay [1] of 32992 nM. In assay [3], the Ratio was more than 5.8.

For the compound `CC(c1c[nH]cn1)c1cccc2ccccc12` (stereo in doubt; S-(-)-2), the EC50 in assay [2] came to 10814 nM.

For `Cc1cccc(C(C)c2c[nH]cn2)c1C` (stereo unspecified) [MEDETOMIDINE], the EC50 in assay [2] was found to be 1165 nM.

As for `CC(c1c[nH]cn1)c1cccc2ccccc12` (stereo in doubt; 2), the EC50 in assay [1] stood at 9 nM; in assay [2], 5793 nM.

Values taken from ChEMBL document CHEMBL1127588, “A structure-activity relationship study of benzylic modifications of 4-[1-(1-naphthyl)ethyl]-1H-imidazoles on alpha 1- and alpha 2-adrenergic receptors” (J Med Chem, 1994).
